Drawing on US10766903B2 (ALMAC DISCOVERY LIMITED, priority 2016, dated 2020), this text covers IC50 for 26 compounds.

In the test the target is USP7 (Homo sapiens (Human), UniProt Q93009). Description: USP7 fluorescence polarisation (FP) biochemical assay, ubiquitin-Lys-TAMRA substrate. Here is the method: Measurement of USP7 Inhibitory Activity
USP7 activity was monitored in a fluorescence polarisation (FP) homogeneous assay using the isopeptide ubiquitin-Lys-TAMRA substrate (U-558, Boston Biochem). Full-length USP7 was purchased from Boston Biochem (His6-USP7FL, E-519). Unless otherwise stated, all other reagents were purchased from Sigma-Aldrich. Enzymatic reactions were conducted in black flat-bottom polystyrene 384-well plates (Nunc) and 15 μL total volume. USP7 (2.5 nM, 5 μL) was incubated in assay buffer (50 mM HEPES (pH 7.2), 150 mM NaCl, 0.5 mM EDTA, 5 mM DTT, 0.05% BSA (w/v), 0.05% CHAPS) in the presence or absence of inhibitor (5 μl). Inhibitors were stored as 10 mM DMSO stocks in an inert environment (low humidity, dark, low oxygen, room temperature) using a Storage Pod System and serial dilutions were prepared in buffer just prior to the assay (from 200 to 0.1 μM, 8 dp curve). […] FP was measured every 15 min over a period of 1.5 h (within the linear range of the assay) using a Synergy 4 plate reader (BioTek) exciting at 530 nm and measuring the amount of parallel and perpendicular light at 575 nm. The FP signal was subsequently normalised to the control without compound present.
In general terms: In fluorescence polarisation assays a small probe gives low polarisation when free and higher when bound to something large.

[1] abbreviates: Table 4, biochemical assay, average of at least duplicate experiments, read-out: USP7 IC50.
The mark [2] stands for this setting: USP7 IC50, Table 4, biochemical assay, average of at least duplicate experiments.

Molecules are shown by their SMILES. Like-named read-outs stand apart in the source and are kept apart here.

Chain of USP7 (Q93009 whole entry): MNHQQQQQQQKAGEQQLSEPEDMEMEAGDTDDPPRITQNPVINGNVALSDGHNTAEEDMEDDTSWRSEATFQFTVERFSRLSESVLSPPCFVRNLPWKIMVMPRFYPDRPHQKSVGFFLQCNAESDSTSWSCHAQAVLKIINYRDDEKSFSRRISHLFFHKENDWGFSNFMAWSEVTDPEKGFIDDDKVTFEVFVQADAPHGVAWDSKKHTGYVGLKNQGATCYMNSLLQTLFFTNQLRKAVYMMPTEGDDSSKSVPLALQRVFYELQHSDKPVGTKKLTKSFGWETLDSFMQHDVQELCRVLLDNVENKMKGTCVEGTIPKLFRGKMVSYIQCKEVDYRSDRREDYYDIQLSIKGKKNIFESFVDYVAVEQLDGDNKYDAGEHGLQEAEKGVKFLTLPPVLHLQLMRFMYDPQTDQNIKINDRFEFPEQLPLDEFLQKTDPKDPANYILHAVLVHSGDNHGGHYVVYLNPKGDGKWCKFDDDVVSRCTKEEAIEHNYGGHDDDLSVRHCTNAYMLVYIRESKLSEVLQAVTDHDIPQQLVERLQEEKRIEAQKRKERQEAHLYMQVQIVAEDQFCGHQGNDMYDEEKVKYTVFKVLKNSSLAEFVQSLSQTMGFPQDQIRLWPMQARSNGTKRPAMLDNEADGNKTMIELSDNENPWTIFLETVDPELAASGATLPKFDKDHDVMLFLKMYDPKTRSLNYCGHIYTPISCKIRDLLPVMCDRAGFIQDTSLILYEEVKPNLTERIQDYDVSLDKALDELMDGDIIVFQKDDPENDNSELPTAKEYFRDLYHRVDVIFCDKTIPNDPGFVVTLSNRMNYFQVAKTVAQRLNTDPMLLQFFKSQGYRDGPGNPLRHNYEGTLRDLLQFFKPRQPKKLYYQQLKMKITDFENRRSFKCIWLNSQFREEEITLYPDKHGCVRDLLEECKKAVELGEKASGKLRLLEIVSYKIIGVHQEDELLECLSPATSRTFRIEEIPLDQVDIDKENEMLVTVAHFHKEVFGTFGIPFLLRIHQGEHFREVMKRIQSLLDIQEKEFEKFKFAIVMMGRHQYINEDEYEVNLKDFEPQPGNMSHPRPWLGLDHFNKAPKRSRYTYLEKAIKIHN

The term IC50 denotes the concentration at which inhibition is half-maximal. As to `C[C@H](CC(=O)N1CCC(O)(Cn2cnc(NC3CCCC[C@H]3N)cc2=O)CC1)c1ccccc1` (mixture of isomers) [Example 63, rac-6-(((±-trans-1,2)-2-Aminocyclohexyl)amino)-3-((4-hydroxy-1-((R)-3-phenylbutanoyl)piperidin-4-yl)methyl)pyrimidin-4(3H)-one, Formic Acid], under setting [1], the IC50 is 250 to 999 nM.
Take `[2H]C1([2H])Oc2ccc(-n3c(Cl)cc4c(=O)n(CC5(O)CCN(C(=O)c6cnc(C7CC7)o6)CC5)cnc43)cc2O1` [Example 236, 7-(Benzo[d][1,3]dioxol-5-yl-2,2-d2)-6-chloro-3-((1-(2-cyclopropyloxazole-5-carbonyl)-4-hydroxypiperidin-4-yl)methyl)-3,7-dihydro-4H-pyrrolo[2,3-d]pyrimidin-4-one]: the IC50 under setting [1] was less than 250 nM.
The same measure, in the same setting: the same measure for `C[C@H](CC(=O)N1CCC(O)(Cn2cnc(NCCNc3ccccc3)cc2=O)CC1)c1ccccc1` [Example 146, (R)-3-((4-hydroxy-1-(3-phenylbutanoyl)piperidin-4-yl)methyl)-6-((2-(phenylamino)ethyl)amino)pyrimidin-4(3H)-one]: 1000 to 200000 nM; for `C[C@H](CC(=O)N1CCC(O)(Cn2cnc(N(CCO)Cc3cccnc3)cc2=O)CC1)c1ccccc1` [Example 177, (R)-3-((4-hydroxy-1-(3-phenylbutanoyl)piperidin-4-yl)methyl)-6-((2-hydroxyethyl)(pyridin-3-ylmethyl)amino)pyrimidin-4(3H)-one]: 1000 to 200000 nM; for `CC1(C(=O)N2CCC(O)(Cn3cnc4c(cc(Br)n4-c4ccccc4)c3=O)CC2)CC1` [Example 223, 6-Bromo-3-((4-hydroxy-1-(1-methylcyclopropanecarbonyl)piperidin-4-yl)methyl)-7-phenyl-3H-pyrrolo[2,3-d]pyrimidin-4(7H)-one]: less than 250 nM.
For the compound `CC(C)Cn1cc(-c2cc(=O)n(CC3(O)CCN(C(=O)C[C@@H](C)c4ccccc4)CC3)cn2)cn1` [Example 41, (R)-3-((4-Hydroxy-1-(3-phenylbutanoyl)piperidin-4-yl)methyl)-6-(1-isobutyl-1H-pyrazol-4-yl)pyrimidin-4(3H)-one], the 50% inhibitory concentration (IC50) under setting [2] was in the range of 250 to 999 nM.
For the compound `Cn1nc2c(=O)n(CC3(O)CCN(C(=O)C[C@H](c4ccccc4)C(F)(F)F)CC3)cnc2c1-c1ccccc1` [Example 37, (R)-6-((4-Hydroxy-1-(4,4,4-trifluoro-3-phenylbutanoyl)piperidin-4-yl)methyl)-2-methyl-3-phenyl-2H-pyrazolo[4,3-d]pyrimidin-7(6H)-one], the IC50 under setting [1] was 250 to 999 nM.
Still for that read-out and setting: the same measure for `C[C@H](CC(=O)N1CCC(O)(Cn2cnc3c(ncn3-c3ccc(CN)cc3)c2=O)CC1)c1ccccc1` [Example 68, (R)-9-(4-(Aminomethyl)phenyl)-1-((4-hydroxy-1-(3-phenylbutanoyl)piperidin-4-yl)methyl)-1H-purin-6(9H)-one]: less than 250 nM; for `CN1CC=C(c2c3ncn(CC4(O)CCN(C(=O)C[C@H](c5ccccc5)C(F)(F)F)CC4)c(=O)c3nn2C)CC1` [Example 130, (R)-6-((4-Hydroxy-1-(4,4,4-trifluoro-3-phenylbutanoyl)piperidin-4-yl)methyl)-2-methyl-3-(1-methyl-1,2,3,6-tetrahydropyridin-4-yl)-2H-pyrazolo[4,3-d]pyrimidin-7(6H)-one]: 1000 to 200000 nM.
For `C[C@H](CC(=O)N1CCC(O)(Cn2cnc(N3CCC4(COC4)C3)cc2=O)CC1)c1ccccc1` [Example 179, (R)-3-((4-hydroxy-1-(3-phenylbutanoyl)piperidin-4-yl)methyl)-6-(2-oxa-6-azaspiro[3.4]octan-6-yl)pyrimidin-4(3H)-one], the IC50 under setting [2] was in the range of 250 to 999 nM.
For the compound `C[C@H](CC(=O)N1CCC(O)(Cn2cnc3c(C(F)(F)F)n(C)nc3c2=O)CC1)c1ccccc1` [Example 23, (R)-6-((4-Hydroxy-1-(3-phenylbutanoyl)piperidin-4-yl)methyl)-2-methyl-3-(trifluoromethyl)-2H-pyrazolo[4,3-d]pyrimidin-7(6H)-one], the IC50 was 600 nM (USP7 IC50, Table 3, effect of the R2 substituent) and 250 to 999 nM under setting [2].
On to `CC(=O)NCCNc1cc(=O)n(CC2(O)CCN(C(=O)C[C@@H](C)c3ccccc3)CC2)cn1` [Example 143, (R)-N-(2-((1-((4-hydroxy-1-(3-phenylbutanoyl)piperidin-4-yl)methyl)-6-oxo-1,6-dihydropyrimidin-4-yl)amino)ethyl)acetamide], for which the IC50 under setting [1] lay within 1000 to 200000 nM.
With `C[C@H](CC(=O)N1CCC(O)(Cn2cnc(-c3cnn(C)c3)cc2=O)CC1)c1ccccc1` [Example 40, (R)-3-((4-Hydroxy-1-(3-phenylbutanoyl)piperidin-4-yl)methyl)-6-(1-methyl-1H-pyrazol-4-yl)pyrimidin-4(3H)-one], the 50% inhibitory concentration (IC50) under setting [2] is 250 to 999 nM.
For the compound `C[C@H](CC(=O)N1CCC(O)(Cn2cnc(N[C@@H](Cc3ccccc3)CN3CCCC3)cc2=O)CC1)c1ccccc1` [Example 57, 3-((4-Hydroxy-1-((R)-3-phenylbutanoyl)piperidin-4-yl)methyl)-6-(((S)-1-phenyl-3-(pyrrolidin-1-yl)propan-2-yl)amino)pyrimidin-4(3H)-one, Formic Acid], under setting [1], the IC50 lay within 1000 to 200000 nM.
`C[C@H](CC(=O)N1CCC(O)(Cn2cnc(-c3ccn[nH]3)cc2=O)CC1)c1ccccc1` [Example 3, (R)-3-((4-Hydroxy-1-(3-phenylbutanoyl)piperidin-4-yl)methyl)-6-(1H-pyrazol-5-yl)pyrimidin-4(3H)-one]: the IC50 under setting [2] was 250 to 999 nM.
Turning to `COC[C@H]1CCCN1CCNc1cc(=O)n(CC2(O)CCN(C(=O)C[C@@H](C)c3ccccc3)CC2)cn1` [Example 70, 3-((4-Hydroxy-1-((R)-3-phenylbutanoyl)piperidin-4-yl)methyl)-6-((2-((R)-2-(methoxymethyl)pyrrolidin-1-yl)ethyl)amino)pyrimidin-4(3H)-one], under setting [1], the IC50 was in the range of 1000 to 200000 nM.
`Cn1nc2c(=O)n(CC3(O)CCN(C(=O)C[C@H](c4ccccc4)C(F)(F)F)CC3)cnc2c1-c1ccc([C@H](N)C(F)F)cc1` [Example 122, 3-(4-((S)-1-Amino-2,2-difluoroethyl)phenyl)-6-((4-hydroxy-1-((R)-4,4,4-trifluoro-3-phenylbutanoyl)piperidin-4-yl)methyl)-2-methyl-2H-pyrazolo[4,3-d]pyrimidin-7(6H)-one]: the IC50 under setting [1] was less than 250 nM.
For the compound `C[C@H](CC(=O)N1CCC(O)(Cn2cnc(OCCN(C)C)cc2=O)CC1)c1ccccc1` [Example 10, (R)-6-(2-(Dimethylamino)ethoxy)-3-((4-hydroxy-1-(3-phenylbutanoyl)piperidin-4-yl)methyl)pyrimidin-4(3H)-one], the IC50 is 1000 to 200000 nM.
For the compound `C[C@H](CC(=O)N1CCC(O)(Cn2cnc(N[C@@H](C)CN3CCCC3)cc2=O)CC1)c1ccccc1` [Example 61, 3-((4-Hydroxy-1-((R)-3-phenylbutanoyl)piperidin-4-yl)methyl)-6-(((S)-1-(pyrrolidin-1-yl)propan-2-yl)amino)pyrimidin-4(3H)-one, Formic Acid], under setting [2], the IC50 fell in the range of 250 to 999 nM.
Consider `C[C@H](CC(=O)N1CCC(O)(Cn2cnc(N3CC4(CN(C)CCO4)C3)cc2=O)CC1)c1ccccc1` [Example 171, (R)-3-((4-hydroxy-1-(3-phenylbutanoyl)piperidin-4-yl)methyl)-6-(8-methyl-5-oxa-2,8-diazaspiro[3.5]nonan-2-yl)pyrimidin-4(3H)-one], for which the IC50 under setting [1] lay in the range of 1000 to 200000 nM.
With `C[C@H](CC(=O)N1CCC(O)(Cn2cnc(N3CC(C(=O)NCC4CC4)C3)cc2=O)CC1)c1ccccc1` [Example 164, (R)-N-(cyclopropylmethyl)-1-(1-((4-hydroxy-1-(3-phenylbutanoyl)piperidin-4-yl)methyl)-6-oxo-1,6-dihydropyrimidin-4-yl)azetidine-3-carboxamide], under setting [1], the IC50 fell in the range of 1000 to 200000 nM.
The same measure, in the same setting: the same measure for `Cn1nccc1-c1cc(-n2c(Cl)cc3c(=O)n(CC4(O)CCN(C(=O)C5(C)CC5)CC4)cnc32)ccc1F` [Example 231, 6-Chloro-7-(4-fluoro-3-(1-methyl-1H-pyrazol-5-yl)phenyl)-3-((4-hydroxy-1-(1-methylcyclopropanecarbonyl)piperidin-4-yl)methyl)-3H-pyrrolo[2,3-d]pyrimidin-4(7H)-one]: 250 to 999 nM; for `C[C@H](CC(=O)N1CCC(O)(Cn2cnc3c(nnn3-c3ccccc3)c2=O)CC1)c1ccccc1` [Example 185, (R)-6-((4-Hydroxy-1-(3-phenylbutanoyl)piperidin-4-yl)methyl)-3-phenyl-3H-[1,2,3]triazolo[4,5-d]pyrimidin-7(6H)-one]: less than 250 nM; for `C[C@H](CC(=O)N1CCC(O)(Cn2cnc3c(-c4cccc(C(=O)O)c4)n(C)nc3c2=O)CC1)c1ccccc1` [Example 244, (R)-3-(6-((4-Hydroxy-1-(3-phenylbutanoyl)piperidin-4-yl)methyl)-2-methyl-7-oxo-6,7-dihydro-2H-pyrazolo[4,3-d]pyrimidin-3-yl)benzoic Acid]: 1000 to 200000 nM.
`C[C@H](CC(=O)N1CCC(O)(Cn2cnc(N3C[C@H]4C[C@@H]3CN(C)C4)cc2=O)CC1)c1ccccc1` (single isomer, unassigned) [Example 181]: the IC50 under setting [2] was 250 to 999 nM.
`Cc1nc2c(=O)n(CC3(O)CCN(C(=O)C[C@H](c4ccccc4)C(F)(F)F)CC3)cnc2n1-c1ccc(CN)cc1` [Example 78, (R)-9-(4-(Aminomethyl)phenyl)-1-((4-hydroxy-1-(4,4,4-trifluoro-3-phenylbutanoyl)piperidin-4-yl)methyl)-8-methyl-1H-purin-6(9H)-one]: the IC50 under setting [1] is less than 250 nM.
